# Laboratory results as given in US11033538B2, “Dosing regimens for the treatment of lysosomal storage diseases using pharmacological chaperones” (Amicus Therapeutics, Inc., priority 2007, dated 2021).
# Where two headings read alike, the source gives them in different places.
# Assays:
# [1] = system: α-GAL; assay type: in vivo, human
# Description: (§1) Four male patients received a single 150 mg Q.O.D for 12 weeks (Group B); while five male patients received 150 mg Q.O.D. for 24 weeks (Group C). Finally nine female patients were randomized to receive one of three dosages: 50, 150 or 250 mg Q.O.D for 12 weeks (Group D) (FIG. 8).
# Enzymatic activity of α-Gal in leukocytes (white blood cells; WBCs) of the patients was measured as a percentage of the average α-Gal activity in white blood cells of 15 healthy volunteers. α-GAL activity was assessed in fractionated tissue obtained from biopsies, and in blood leukocytes and plasma (from blood collected at baseline and every month).
# [2] = system: GL-3; assay: Example 6, kidney biopsy GL-3 by mass spectroscopy; assay type: in vivo, human
# Description: as §1
# (§2) Kidney biopsies were performed at baseline, 12 weeks and 24 weeks post-treatment and evaluated for GL-3 deposits in various renal cells. GL-3 presence in the tissue was examined histologically as well as through the use of mass spectroscopy. Light microscopic analysis of kidney biopsies was performed, wherein the accumulation of GL-3 in the tissue was classified in a manner similar to the classification analysis performed in Kidney International, Vol. 62 (2002), pp. 1933-1946 which is hereby incorporated by reference. Cells were classified as containing no GL-3 accumulation (“0”); mild GL-3 accumulation (“1”); moderate GL-3 accumulation (“2”); or severe GL-3 accumulation (“3”).
# (§3) Kidney GL-3 levels were assessed using histological and mass spectroscopic analysis. Kidney biopsies were examined in four of the “good” responders, two of the “moderate” responders, and two of the “non” responders. Accumulation of GL-3 was examined in three different kidney cell types: interstitial capillaries, distal tubules, and podocytes.
# [3] = Example 13, tissue half-life of DGJ; assay type: in vivo, mice; details: male, hR301Q GLA Tg/KO, mouse, oral; skin, heart, kidney; after 4 weeks 100 mg/kg/day
# [4] = system: α-GAL; assay: Example 8, α-GAL activity in cell lines expressing Fabry missense mutations; assay type: cell-based
# Excerpt: Cell lines were constructed to express one of 75 Fabry missense mutations. […] 20 of the 75 cell lines expressed a missense mutation corresponding to later-onset Fabry disease.
# [5] = system: GL-3; assay: Oral administration of Amigal to mice that produce defective human α-GAL, GL-3; assay type: in vivo
# Description: (§4) Kidney GL-3 levels were assessed by an independent expert using electron microscopy.
# [6] = system: healthy male volunteers
# Description: Safety was determined by evaluating vital signs, laboratory parameters (serum chemistry, hematology, and urinalysis), ECGs, physical examination and by recording adverse events during the Treatment Period.
# Adverse events were coded using the MedDRA version 7.0 dictionary and summarized by treatment for the number of subjects reporting the adverse event and the number of adverse events reported. A by-subject adverse event data listing including verbatim term, coded term, treatment group, severity, and relationship to treatment was provided. Concomitant medications and medical history were listed by treatment.
# [7] = system: Fabry patients; assay: Example 6, self-reported Fabry symptoms; assay type: in vivo, human
# Excerpt: Patients self-reported changes in symptoms at the end of 12 or 24 week treatment period to evaluate, inter alia, reduction in acroparaesthesia. This may be evidence of clearance of GL-3 in the microvasculature of peripheral nerve cells.
# [8] = system: GL-3; assay: Example 6, kidney biopsy GL-3 histology; assay type: in vivo, human
# Description: as §1, §2, §3
# [9] = system: GL-3; assay: Example 6, urinalysis of GL-3; assay type: in vivo, human
# Description: as §1
# Urine was analysed at baseline and periodically every 2-6 weeks for GL-3.
# [10] = system: patients with Fabry disease; assay: Example 15, renal function assessment; assay type: in vivo, human
# Description: Annualized rates of change (mL/min/1.73 m^2/year) were calculated using Chronic Kidney Disease Epidemiology Collaboration-eGFRCKD-EPI) and measured iohexol clearance-mGFRiohexol).
# [11] = system: GL-3; assay: Example 15, kidney interstitial capillary GL-3 inclusions; assay type: in vivo, human
# Excerpt: The tertiary objectives were cardiac function, patient-reported outcomes, exploratory kidney analyses, and white blood cell α-galactosidase activity. Study completers were eligible to enroll in the open-label study—AT1001-041/NCT01458119—for up to 5 years.
# Each patient underwent a baseline kidney biopsy, as well as repeat kidney biopsies at 6 and 12 months. The number of GL-3 inclusions per kidney interstitial capillary per patient at baseline, and at 6 and 12 months was quantitatively assessed in 300 capillaries by 3 independent pathologists blinded to treatment and visit. All values for each individual biopsy at a given time were averaged prior to statistical analysis.
# Two other Stage 1 endpoints were assessed (modified-ITT population: randomized patients with paired baseline and month 6 biopsies; n=60): percent change in GL-3 inclusions per interstitial capillary, and percent of interstitial capillaries with zero GL-3 inclusions.
# [12] = system: GL-3; assay: Example 5, kidney GL-3 levels by electron microscopy; assay type: in vivo, human
# Description: Eight patients in the study received an ascending dose of 25, 100, and then 250 mg b.i.d. over 6 weeks, followed by 50 mg/day for the remainder of the study.
# as §4
# [13] = system: GL-3; assay: Example 15, qualitative GL-3 in glomerular cells; assay type: in vivo, human; details: 12 months of DGJ
# Description: GL-3 changes in podocytes, endothelial cells, and mesangial cells, and glomerular sclerosis, were assessed qualitatively by the same 3 pathologists blinded to treatment/visit.
# [14] = female expected good responders
# [15] = up to 24 months of DGJ, mITT-suitable
smiles,measurement,setting,value
"OC[C@H]1NC[C@H](O)[C@@H](O)[C@H]1O [DGJ, (2R,3S,4R,5S)-2-(hydroxymethyl) piperdine-3,4,5-triol]",mean increase in WBC α-Gal activity,"[1]; eleven good responders, male, pre vs post treatment",630%
same,mean increase in leukocyte α-Gal activity,"[1]; four moderate responders, male",170%
same,number of good responders (α-Gal activity),"[1]; male patients, Groups A-C",eleven
same,number of moderate responders (α-Gal activity),"[1]; male patients, Groups A-C",four
same,number of non responders (α-Gal activity),"[1]; male patients, Groups A-C",two
same,mean increase in WBC α-Gal activity compared to baseline,"[1]; nine female patients, Group D (50, 150 or 250 mg Q.O.D, 12 weeks)",146%
same,leukocyte or kidney α-Gal activity,"[1]; non responders, male",None of the “non” responders exhibited any overall increase
same,mean increase in kidney α-Gal activity,"[1]; one moderate responder, male",100%
same,mean increase in kidney α-Gal activity,"[1]; six of the good responders, male",1090%
same,expected good responders with kidney GL-3 decrease of greater than 10%,[2]; female,two of the five
same,mean decrease in kidney GL-3 levels (mass spectoanalysis),[2]; [14],20%
same,good responders with kidney GL-3 decrease of greater than 10%,[2]; male good responders,3
same,mean decrease in kidney GL-3 levels (mass spectroanalysis),[2]; male good responders,28%
same,half-life,[3],6 to 7 h
same,cell lines in which DGJ enhanced α-GAL activity,[4]; 47 of the 75 cell lines,63%
same,cell lines with increase in enzymatic activity,"[4]; classic Fabry mutations, 34 of 57 cell lines",60%
same,cell lines with increase in α-GAL activity,"[4]; later-onset Fabry mutations, 19 of 20 cell lines",95%
same,GL-3 after oral administration,[5],GL-3 reductions observed
same,safety and tolerability,"[6]; 50 mg b.i.d. and 150 mg b.i.d., 7 days",safe and well tolerated
same,adverse events (AEs),[6]; 50 mg b.i.d. or 150 mg b.i.d.,no subject presented with AEs
same,tolerability,[6]; 50 and 150 mg twice daily for 7 days,generally well-tolerated at all doses
same,"vital sign, ECG, physical examination",[6]; 50 or 150 mg b.i.d.,"No clinically relevant abnormality occurred in any vital sign, ECG, or physical examination parameter"
same,serious adverse events,[6]; any treatment group,no serious adverse events
same,self-reported symptoms,[7]; four female expected good responders,decreases in pain
same,self-reported symptoms,[7]; seven male good responders,improved gastrointestinal function and a decrease in pain
same,distal tubule GL-3 (histology),[8]; male good responders,three of the good responders experienced a decrease in GL-3
same,interstitial capillary GL-3 (histology),[8]; male good responders,one patient displayed a decrease in interstitial capillary GL-3
same,overall GL-3 levels in kidney biopsies,[8]; male good responders,two of the good responders showed a decrease in GL-3
same,podocyte GL-3 (histology),[8]; male good responders,all four good responders experienced no change
same,overall GL-3 levels in kidney biopsies,[8]; male moderate responders,two patients showed a decrease in GL-3 levels
same,overall GL-3 levels in kidney biopsies,[8]; male non-responders,One non-responders showed a decrease in GL-3 levels
same,expected good responders with urine GL-3 decrease greater than 10%,[9]; female,3 of the 5
same,mean decrease in urine GL-3 levels,[9]; [14],20%
same,good responders with urine GL-3 decrease greater than 10%,[9]; male good responders,eight of the eleven
same,mean decrease in urine GL-3 levels,[9]; male good responders,38%
same,urine GL-3 following treatment,[9]; male moderate and non responders,overall increases in urine GL-3
same,"eGFRCKD-EPI or mGFRIohexol changes, DGJ vs placebo","[10]; baseline to month 6, mITT-suitable",no statistically significant differences
same,annualized change in eGFRCKD-EPI (±SEM),[10]; [15],−0.30±6.6 mL/min/1.73 m^2
same,annualized change in mGFRiohexol (±SEM),[10]; [15],−1.51±1.33 mL/min/1.73 m^2
same,reduction in interstitial capillary GL-3 (±SEM),"[11]; 6 months of DGJ, mITT-suitable, p=0.008 vs placebo",−0.250±0.103
same,patients achieving a response (>50% reduction in GL-3 inclusions per interstitial capillary),"[11]; 6 months, ITT, 150 mg DGJ HCl every other day, 13 of 32, p=0.30 vs placebo",41%
same,median change in interstitial capillary GL-3 from baseline,"[11]; 6 months, p=0.097 vs placebo",−40.8%
same,"mean difference for the change in % of interstitial capillaries with zero GL-3 inclusions, in favor of DGJ","[11]; 6 months, vs placebo, p=0.042",7.3%
same,interstitial capillary GL-3 reduction after additional treatment,[11]; additional 6 months of treatment,remained stable
same,reduction in interstitial capillary GL-3 (±SEM),"[11]; at 12 months, patients switching from placebo to DGJ at 6 months, p=0.014",−0.330±0.152
same,treatment effect in interstitial capillary GL-3,[11]; patients with mutant α-galactosidase not suitable for DGJ therapy,did not show any treatment effect in interstitial capillary GL-3
same,decrease of GL-3 levels in other kidney cell types including interstitial capillaries,[12]; both patients,less than 1 unit
same,"kidney GL-3 (mesangial cells, glomerular endothelium, distal tubules)","[12]; one patient, 12 weeks of treatment",observed decrease in GL-3 in multiple cell types of the kidney of one patient
same,kidney GL-3 (same cell types),"[12]; second patient, 24 weeks, not independently conclusive",decrease of GL-3 levels in the same kidney cell types
same,samples with increases in glomerular cell GL-3,[13],None of the samples had increases
same,biopsies with decrease in glomerular podocyte GL-3,[13]; 5 of 23 biopsies,22%
same,biopsies with decrease in endothelial cell GL-3,[13]; 6 of 23 biopsies,26%
same,biopsies with decrease in mesangial cell GL-3,[13]; 11 of 23 biopsies,48%
